Experimental findings from US20240101602A1, “ANTIMICROBIAL PEPTIDES AND METHOD OF PREVENTING OR TREATING INFECTION BY USING THE SAME” (priority 2020, published 2024) are described below.

The test system of series [1] is Ralstonia solanacearum strain Pss190. The note with it: Rs Pss190; optimal minimal medium, crude peptides (Table 9).
In series [2] the test system is Cgl FST02. The format is cell-based, Colletotricum gloeosporioides. On the procedure: (§1) The experiments were conducted in an optimal minimal medium for each pathogen. The media and growth conditions were described in Tables 2 and 3. MIC and MBC values were determined following the procedures described above. […] Fifty microliters of serially diluted peptides (2-fold the final concentration) were added in a 96-well polystyrene plate with 50 μL of the fungal spore suspension. […] The plates were incubated at an optimal temperature without shaking. […] MFC was determined as the lowest peptide concentration at which no fungal growth was observed.

Series [3] relates to Pcc. Description: In planta pathogen inoculation assay, lesion diameter. It is filed as in vivo, Pectobacterium carotovorum subsp. carotovorum. The note with it: detached leaves of tomato L390 and leaves of Arabidopsis Col0; final peptide concentration 16 μg/mL; 16 to 28 hours post-inoculation.
Series [4] concerns Bc. The description is as above. It is filed as in vivo, Botrytis cinerea. As to conditions: detached leaves of tomato L390 and leaves of Arabidopsis Col0; final peptide concentration 16 μg/mL; 47 to 70 hours post-inoculation.
For series [5], the system named is Candida albicans 89 (echinocandin-resistant).
Series [6] relates to Botrytis cinerea. It is filed as cell-based. On the procedure:
as §1

For series [7], the system named is Candida albicans SC5314.
The subject of series [8] is Ralstonia solanacearum strain Pss4. The note with it: Rs Pss4; optimal minimal medium, crude peptides (Table 9).
The subject of series [9] is bacteria, fungal spores, and fungal mycelia. It is filed as cell-based. As to conditions: SYTOX Green, crude peptides, room temperature in dark for 2 h.
Series [10] has as its system Candida albicans 12-99 (fluconazole-resistant).
Series [11] has as its system Pectobacterium carotovorum subsp. carotovorum. The format is cell-based. On the procedure:
(§2) The effect of peptide length on the antimicrobial activity was investigated by deciding the minimal inhibitory concentration (MIC) and minimal bactericidal concentration (MBC) for each peptide against the pathogen with the media and growth conditions of phytopathogenic bacteria and E. coli as described in Table 1. Single bacterial colony grown on an optimal rich agar medium was picked, and each grew in 3 mL of the same rich liquid medium for 4 to 6 h. For experiments carried out in the rich medium, the bacterial broth culture was then diluted in the same medium to give a final concentration of OD600=0.08, and then further diluted 100 folds in the same medium. For experiments carried out in the minimal medium, the bacterial cells were collected from the bacterial liquid culture by centrifugation, re-suspended in an optimal minimal medium to give a final concentration of OD600=0.08, and then further diluted 100 folds in the same minimal medium. Fifty microliters of serially diluted peptides (2-fold the final concentration) were added in a 96-well polystyrene plate with 50 μL of the bacterial culture. […] The plates were incubated at an optimal temperature without shaking. […] MBC was determined as the lowest peptide concentration at which no colonies formed. The experiments were conducted in an optimal minimal medium for each pathogen. The media and growth conditions were described in Tables 2 and 3. MIC and MBC values were determined following the procedures described above. […] Fifty microliters of serially diluted peptides (2-fold the final concentration) were added in a 96-well polystyrene plate with 50 μL of the fungal spore suspension.

In series [12] the test system is Erwinia chrysanthemi. It is filed as cell-based. The procedure: as §2
Series [13] has as its system Staphylococcus epidermidis ATCC 14990.
For series [14], the system named is Acinetobacter baumannii ATCC 17978.
Series [15] deals with Staphylococcus aureus BCRC 10777.
Series [16] concerns Agrobacterium tumefaciens strain Atu C58C1. As to conditions: rich medium, 24 h, purified peptides.
A short description of series [17]: Circular dichroism spectroscopy, secondary structure deconvolution. As to conditions: for α-helix content: dissolved in water, structural deconvolution of CD spectra.
Series [18] relates to Xanthomonas campestris pv. campestris strain Xcc17. Briefly: IC50 of bacterial growth (OD600) in rich liquid medium. The format is cell-based. The note with it: Xcc Xcc17, 24 h, purified peptides. On the procedure:
(§3) To measure the antimicrobial activity, single colony grown on an optimal rich agar medium for each bacterium was picked and grew in 3 mL of the same rich liquid medium for 4 to 6 h. The bacterial culture was then diluted in the same medium to give a final concentration of OD600=0.08 and then further diluted […] in the same medium. In each well of a 96-well polystyrene plate, 90 μL of the diluted culture was mixed with 10 μL of the peptide to give a peptide concentration of 0, 2, 10, and 20 μg/mL (final cell concentration is 5×10^5 CFU/mL). OD600 was measured after incubation at an optimal temperature for 24 h. IC50 was determined as the lowest peptide concentration inhibiting 50% of bacterial growth.

The test system of series [19] is Xanthomonas euvesicatoria strain Xvt28. The series is described as above. It is filed as cell-based. The note with it: Xev Xvt28, 24 h, purified peptides. On the procedure:
as §3

The subject of series [20] is Escherichia coli strain DH5a. The note with it: Eco DH5α; rich medium, 24 h, purified peptides.
Series [21] deals with Xanthomonas oryzae pv. oryzae strain Xoo28. The note with it: Xoo Xoo28; rich medium, 24 h, purified peptides.
[22] abbreviates: Candida albicans SC5314 (Tables 10, 14).
[23] abbreviates: Candida albicans SC5314, 48 h at 35° C., 0.125 to 64 μg/mL (Table 5).

≈ marks a conversion by molar mass, not a printed value. Like-named read-outs stand apart in the source and are kept apart here. Residues, ends and D or L forms follow the SMILES beside them. *: point of attachment. Myristoyl = CCCCCCCCCCCCCC(=O)*

The term MIC denotes the smallest concentration in the dilution series that meets the test's criterion for growth inhibition. High values mean weaker potency, low ones greater potency. In the case of `CCCCCCCCCCCCCC(=O)N[C@@H](Cc1c[nH]c2ccccc12)C(=O)N[C@@H](CCCCN)C(=O)N[C@@H](CCCCN)C(=O)N[C@@H](CC(C)C)C(=O)N[C@@H](CCCCN)C(=O)N[C@@H](CCCCN)C(=O)N[C@@H](CC(C)C)C(=O)N[C@@H](CC(C)C)C(=O)N[C@@H](CCCCN)C(=O)N[C@@H](CCCCN)C(=O)N[C@@H](CC(C)C)C(=O)N[C@@H](CCCCN)C(=O)N[C@@H](CCCCN)C(=O)N[C@@H](CC(C)C)C(N)=O` [pepD2M] (Myristoyl-WKKLKKLLKKLKKL-NH2), the MBC/MFC in [1] came to 8.0 µg/mL (≈ 3.99 µM); in [2] (Cgl FST02, optimal minimal medium, crude peptides (Table 9)), 16.0 µg/mL (≈ 7.98 µM); in series [6], 12.0 µg/mL (≈ 5.99 µM); in [8], 10.0 µg/mL (≈ 4.99 µM); in series [11], 4.0 µg/mL (≈ 2 µM); in [12] it was 6.0 µg/mL (≈ 2.99 µM). In addition, the MIC in series [1] amounted to 8.0 µg/mL (≈ 3.99 µM); in series [5], 32 µg/mL (≈ 16 µM); in [7] (setting [22]), 32 µg/mL (≈ 16 µM); in [8], 8.0 µg/mL (≈ 3.99 µM); in [10] it was 8 µg/mL (≈ 3.99 µM); in [11], 4.0 µg/mL (≈ 2 µM). The compound also showed a minimal inhibitory concentration (MIC) in [12] of 4.0 µg/mL (≈ 2 µM). Besides, the MFC in series [2] came to 14.0 µg/mL (≈ 6.98 µM); in series [5], 64 µg/mL (≈ 31.9 µM); in series [6] it was 18.7 µg/mL (≈ 9.33 µM); in [7] (setting [22]), 64 µg/mL (≈ 31.9 µM); in series [10] it was 64 µg/mL (≈ 31.9 µM). The “disease lesions caused by Pcc” value in [3] is listed as “significantly reduced disease lesions”. Also, the “disease lesions caused by Bc” value in series [4] is “significantly reduced disease lesions”. Moreover, the “membranolytic effect on the cell walls of bacteria, fungal spores, and fungal mycelia” value in [9] is reported as “significant membranolytic effect”.

For orientation: MBC means the smallest concentration meeting the test's criterion for killing. The low end stands for greater bactericidal potency, the high end for weaker bactericidal potency. With `CCCCCCCCCCCCCC(=O)N[C@@H](Cc1c[nH]c2ccccc12)C(=O)N[C@@H](CCCCN)C(=O)N[C@@H](CCCCN)C(=O)N[C@H](C(=O)N[C@@H](CCCCN)C(=O)N[C@@H](CCCCN)C(=O)N[C@@H](CC(C)C)C(=O)N[C@H](C(=O)N[C@@H](CCCCN)C(=O)N[C@@H](CCCCN)C(=O)N[C@@H](CC(C)C)C(N)=O)C(C)C)C(C)C` [pepD3(V)M] (Myristoyl-WKKVKKLVKKL-NH2), the MBC in series [13], in series [14] and in [15] was 16 µg/mL (≈ 9.95 µM) throughout. The MIC in series [13] and in series [15] was 16 µg/mL (≈ 9.95 µM) in each case.

`CCCCCCCCCCCCCC(=O)N[C@@H](Cc1c[nH]c2ccccc12)C(=O)N[C@@H](CCCCN)C(=O)N[C@@H](CCCCN)C(=O)N[C@@H](CC(C)C)C(=O)N[C@@H](CCCCN)C(=O)N[C@@H](CCCCN)C(=O)N[C@@H](CC(C)C)C(=O)N[C@@H](CC(C)C)C(=O)N[C@@H](CCCCN)C(=O)N[C@@H](CCCCN)C(=O)N[C@@H](CC(C)C)C(N)=O` [pepD3M] (Myristoyl-WKKLKKLLKKL-NH2): the MBC/MFC in [1] turned out to be 14.0 µg/mL (≈ 8.56 µM); in series [2], 14.0 µg/mL (≈ 8.56 µM); in [6], 6.0 µg/mL (≈ 3.67 µM); in [8], 12.0 µg/mL (≈ 7.34 µM); in [11], 4.0 µg/mL (≈ 2.45 µM); in series [12] it was 6.0 µg/mL (≈ 3.67 µM). The MIC in [1] came to 12.0 µg/mL (≈ 7.34 µM); in series [2], 14.0 µg/mL (≈ 8.56 µM); in [6], 5.3 µg/mL (≈ 3.24 µM); in [8] it was 8.0 µg/mL (≈ 4.89 µM); in series [11] it was 4.0 µg/mL (≈ 2.45 µM); in series [12], 5.0 µg/mL (≈ 3.06 µM). For the same compound, in [3], the “disease lesions caused by Pcc” value is “significantly reduced disease lesions”. Also, the “disease lesions caused by Bc” value in series [4] is given as “significantly reduced disease lesions”. The “membranolytic effect on the cell walls of bacteria, fungal spores, and fungal mycelia” value in series [9] was “significant membranolytic effect”.

In the case of `CCCCCCCCCCCCCC(=O)N[C@@H](Cc1c[nH]c2ccccc12)C(=O)N[C@@H](CCCCN)C(=O)N[C@@H](CCCCN)C(=O)N[C@H](C(=O)N[C@@H](CCCCN)C(=O)N[C@@H](CCCCN)C(=O)N[C@H](C(=O)N[C@H](C(=O)N[C@@H](CCCCN)C(=O)N[C@@H](CCCCN)C(=O)N[C@H](C(=O)N[C@@H](CCCCN)C(=O)N[C@@H](CCCCN)C(=O)N[C@H](C(N)=O)C(C)C)C(C)C)C(C)C)C(C)C)C(C)C` [pepV2M] (Myristoyl-WKKVKKVVKKVKKV-NH2), the MBC in series [13], in [14] and in [15] was 16 µg/mL (≈ 8.27 µM) each time. Further, the MIC in series [13] stood at 16 µg/mL (≈ 8.27 µM); in series [15], 8 µg/mL (≈ 4.14 µM).

As usually defined, the IC50 is the concentration that inhibits the measured activity by half. A higher IC50 goes with weaker potency in that assay. On to Ac-WKLLKKLLKLLKKLLKLL-NH2 [pepB], for which the IC50 result in series [16] is “— (“—” indicates no antimicrobial activity being detected at the highest peptide concentration (20 μg/mL) tested in this study.)”; in series [18], “— (“—” indicates no antimicrobial activity being detected at the highest peptide concentration (20 μg/mL) tested in this study.)”; in [19], 16.7 µg/mL; in [20] it was “— (“—” indicates no antimicrobial activity being detected at the highest peptide concentration (20 μg/mL) tested in this study.)”; in series [21], “— (“—” indicates no antimicrobial activity being detected at the highest peptide concentration (20 μg/mL) tested in this study.)”. In [17] (10% TFE), this compound returned a α-helix formation of 90%. In addition, the α-helix content result in series [17] is recorded as “about 25%”. In addition, the MIC entry in [7] (setting [23]) is given as “— (“—” indicates no antimicrobial activity being detected at the highest peptide concentration (64 μg/mL) tested.)”.

In the case of WKLLKLLLKLLKLLLKLL [pepA], the IC50 result in series [16], in [18], in series [19], in [20] and in series [21] was “— (“—” indicates no antimicrobial activity being detected at the highest peptide concentration (20 μg/mL) tested in this study.)” in each case. For the same compound, the α-helix content entry in [17] is “over 90%”. For the same compound, the MIC entry in series [7] (setting [23]) is reported as “— (“—” indicates no antimicrobial activity being detected at the highest peptide concentration (64 μg/mL) tested.)”.
